Measurements: US20070298997A1, “Compounds useful in treating diabetic microvascular complications and age-related macular degeneration” (priority 2003, published 2007)

Legend:
[1] = system: Retinal capillary endothelial cells (RCEC); assay: Quantification of viable cells by MTT assay, RCEC; type: cell-based, bovine; details: 5 μM, 48 h
Protocol: FIG. 2 illustrates the specific inhibition of endothelial cell proliferation by recombinant kallistatin. RCEC were treated with recombinant kallistatin at concentrations of 5,10, 20, 40, 80 and 160 nM for 72 h. Viable cells were quantified by MTT assay. […] This effect appeared to be kallistatin concentration-dependent, with an apparent IC50 of 50 nM (FIG. 2) which is similar to that of K5, a known angiogenic inhibitor (Zhang et al., 2001).
FIG. 7 illustrates the effects of B1 and B2 kinin receptor antagonists on RCEC. In order to test whether the anti-angiogenic activity of kallistatin is via reducing kinin production by inhibiting kallikrein activity, RCEC were treated with 5 μM des-Arg^9-[Leu^8]-bradykinin, a specific antagonist of the B1 kinin receptor or Hoe-140, a specific B2 kinin receptor antagonist, in the presence or absence of 40 nM kallistatin for 48 h, and viable cells were quantified by MTT assay.
Quantification of viable cells: Cells were plated in 12-well plates in triplicate and cultured in the growth medium until they reached 60-70% of confluency. The culture medium was replaced with a medium containing 1% fetal bovine serum (FBS). Recombinant kallistatin was added to the cover medium to various concentrations and incubated with the cells for 72 h. The viable cells were quantified by the MTT (3-[4,5-dimethylthiazol-2-yl]-2,5-dephenyl tetrazolium bromid, Roche, Mannheim, Germany) assay following a protocol recommended by the manufacturer. The effect of kallistatin on viable cell number was analyzed using Student's t test.

B1 receptor = details: at 1 mM; cited from earlier work

| Substance | inhibition of RCEC (viable cells) ([1]; P>0.05) | block of bradykinin-induced endothelial cell proliferation (B1 receptor) | viable cells, % of the control ([1]; P<0.05) |
| --- | --- | --- | --- |
| Hoe-140 [reference compound] | no significant inhibition | – | – |
| des-Arg^9-[Leu^8]-bradykinin [reference compound] | – | completely block bradykinin-induced endothelial cell proliferation | 85 % of the control |
